Values of other authors in patent US4464385A, “Treatment of diabetic complications with hydantoins” (Alcon Laboratories, Inc., priority 1982, dated 1984).

Test system: aldose reductase
Conditions: U.S. Pat. No. 4,130,714; cited from earlier work

O=C1NC(=O)C2(CCSc3ccc(F)cc32)N1 (single isomer, unassigned) [d-6'-fluoro-spiro[imidazolidine-4,4'-thiochroman]-2,5' dione]
activity in preventing chronic diabetic complications: enhanced activity
